For this experiment, the system named is SYF cells. Description: Anti-pTyr immunofluorescent staining of tyrosine phosphorylation in SYF cells. It is filed as cell-based, mouse. Particulars: 3 mM Na3VO4 for 3 h, FIG. 46. On the procedure: COS-1, HeLa cells (Japanese Collection of Research Bioresources, Osaka), MCF-7 (provided by H. Saya), A431 (provided by M. N. Fukuda), HEK293 (provided by M. Tagawa), HCT116 (provided by T. Tomonaga), and SYF ([37]; provided by M. Okada and S. Nada) cells were cultured in Iscove's modified DME containing 5% fetal bovine serum (FBS). Cells were transiently transfected with 0.5 μg of plasmid vector using Trans IT Transfection reagent (Mirus) or with 1 μg of plasmid vector using linear polyethylenimine (25 kDa) (Polyscience, Inc.). For growth factor stimulation, COS-1 cells were starved under low serum conditions (0.05% FBS) for 24 h and restimulated with serum (5% FBS). […]
Confocal and Nomarski differential-interference-contrast images were obtained using a Fluoview FV500 confocal laser scanning microscope with a 40×1.00 NA oil and a 100×1.35 NA oil immersion objective (Olympus, Tokyo) and an LSM 510 confocal laser scanning microscope with a 63×1.40 NA oil immersion objective (Zeiss), as described. […] Emission signals were detected between 505 and 525 nm for fluorescein, at more than 560 nm for rhodamine and more than 610 nm for PI [44]. […] Fluorescence intensity plots of anti-histone H3K4me3, anti-ATF-2 pT69/71 and anti-HP1α antibody and PI staining (see FIGS. 18B, 19B, and 20B, respectively) were generated using Fluoview version 4.3 software (Olympus, Tokyo). […]

Take `[Na+].[Na+].[Na+].[O]=[V]([O-])([O-])[O-]` [Na3VO4, sodium orthovanadate]: the tyrosine phosphorylation entry is recorded as “increased tyrosine phosphorylation at levels comparable to those in COS-1 cells”.

Source of the values: US10072304B2, “Nuclear localization of Src-family tyrosine kinases is required for growth factor-induced euchromatinization” (National University Corporation Chiba University, priority 2009, dated 2018).
